Experimental data from paper PMC10046037, “GABRG2 Variants Associated with Febrile Seizures” (Biomolecules, 2023).

Target: T1, α1β3γ2 GABAA receptor, γ2R408K variant (Homo sapiens, UniProt P14867+P18507+P28472, R408K)
T1 construct: expressed in transfected cells; host or cells: HEK293T
T1 sequence (P14867 28-456): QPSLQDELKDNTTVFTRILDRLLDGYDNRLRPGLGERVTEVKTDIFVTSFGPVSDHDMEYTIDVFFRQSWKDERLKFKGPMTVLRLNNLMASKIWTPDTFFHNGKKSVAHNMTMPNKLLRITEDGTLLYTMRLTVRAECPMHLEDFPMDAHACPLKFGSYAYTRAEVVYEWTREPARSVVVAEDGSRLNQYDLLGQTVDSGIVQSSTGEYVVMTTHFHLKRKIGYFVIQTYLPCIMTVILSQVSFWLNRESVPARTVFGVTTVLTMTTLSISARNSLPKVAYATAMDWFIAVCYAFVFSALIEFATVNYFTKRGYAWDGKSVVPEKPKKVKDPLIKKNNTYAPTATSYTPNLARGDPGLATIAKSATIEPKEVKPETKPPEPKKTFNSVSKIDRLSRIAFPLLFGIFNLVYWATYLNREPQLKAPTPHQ
T1 sequence (P28472 26-473 isoform P28472-2): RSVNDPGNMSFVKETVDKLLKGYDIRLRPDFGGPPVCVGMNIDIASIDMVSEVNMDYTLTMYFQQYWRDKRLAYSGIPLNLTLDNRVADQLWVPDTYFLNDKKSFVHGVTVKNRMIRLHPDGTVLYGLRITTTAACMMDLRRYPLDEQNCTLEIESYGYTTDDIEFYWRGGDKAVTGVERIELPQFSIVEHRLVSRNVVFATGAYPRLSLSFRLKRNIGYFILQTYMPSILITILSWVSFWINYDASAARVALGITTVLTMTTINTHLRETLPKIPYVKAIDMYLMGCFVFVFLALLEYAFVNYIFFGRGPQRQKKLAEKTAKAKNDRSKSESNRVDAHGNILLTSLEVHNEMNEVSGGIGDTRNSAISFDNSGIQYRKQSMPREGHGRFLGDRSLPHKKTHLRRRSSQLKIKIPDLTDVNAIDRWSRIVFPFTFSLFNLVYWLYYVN
T1 sequence (P18507 40-475 R408K): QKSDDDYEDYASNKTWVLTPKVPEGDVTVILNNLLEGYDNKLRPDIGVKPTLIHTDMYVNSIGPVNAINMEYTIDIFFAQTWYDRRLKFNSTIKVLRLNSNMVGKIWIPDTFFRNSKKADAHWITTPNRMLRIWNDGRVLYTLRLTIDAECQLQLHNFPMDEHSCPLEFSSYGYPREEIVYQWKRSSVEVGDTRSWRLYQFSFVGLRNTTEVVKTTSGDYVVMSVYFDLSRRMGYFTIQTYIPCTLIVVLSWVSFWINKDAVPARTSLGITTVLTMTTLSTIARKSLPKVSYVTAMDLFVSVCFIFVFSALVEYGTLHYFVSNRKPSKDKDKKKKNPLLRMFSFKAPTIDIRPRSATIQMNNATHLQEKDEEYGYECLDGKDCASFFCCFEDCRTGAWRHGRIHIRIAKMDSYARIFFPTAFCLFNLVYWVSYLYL
Assay: Automated patch clamp of GABA-elicited currents (SyncroPatch 384PE), γ2R408K
Type: cell-based
Conditions: 1 mM GABA for 5 ms, HEK293T, mean
Method: The coding sequences of human α1 (GABRA1, NM_000806), β3 (GABRB3, NM_021912), and γ2 (GABRG2, NM_198904.2) GABAAR subunits were subcloned into the pcDNA3.1 expression vectors (Invitrogen, Waltham, MA, USA).
HEK293T cells (ATCC, CRL-11268) were cultured at 37 °C in a humidified 5% CO2 incubator and maintained in Dulbecco’s modified Eagle’s medium (Invitrogen) supplemented with 10% fetal bovine serum (Life Technologies, Carlsbad, CA, USA), and 100 IU/mL of penicillin/streptomycin (Life Technologies). For the expression experiments, 4 × 10^5 cells were transfected using polyethylenimine (PEI) reagent (40 kD, Polysciences, Warrington, PA, USA) at a DNA: to transfection reagent ratio of 1:2.5 and harvested 36 h after transfection. To express WT and variant α1β3γ2 receptors, a total of 3 µg of α1, β3, and γ2 (WT or mutant) subunit cDNAs were transfected at a ratio of 1:1:1 into 60 mm culture dishes. For the mock-transfected condition, an empty pcDNA3.1 vector was added for a final cDNA transfection amount of 3 μg. For the electrophysiology experiments, 2.5 × 10^5 cells were plated in 100 mm culture dishes and transfected after 24 h with 3 μg of cDNA of each α1, β3, γ2 (wild-type or mutant) subunit, using X-tremeGENE HP DNA transfection Reagent (Roche Diagnostics, Basel, Switzerland), following the manufacturer’s protocol. Recordings were obtained forty-eight hours after transfection.
Whole-cell patch clamp recordings were conducted according to the manufacturer’s standard procedure for the SyncroPatch 384 [31]. […] Using PatchControl 384, electrophysiological parameters, such as seal resistance, capacitance, and series resistance, were determined for each well after the application of a test pulse, and subsequently monitored over time. […] The currents were normalized to the maximal response of each well, and the concentration–response curves were calculated from single-point additions. The EC50 values for each variant or wild-type receptor were calculated across multiple wells for each experimental condition.

Deactivation (-80 mV): 165.4 ms
IMAX (maximal GABA-evoked peak current): 0.22 nA
Rise Time (10–90% rise time): 40.23 ms
SMILES: NCCCC(=O)O [GABA, γ-aminobutyric acid]
